Assay results reported in patent US20080187492A1, “Drosophila Models For Diseases Affecting Learning and Memory” (priority 2004, published 2008).

Tests used:
Format in all cases: in vivo, Drosophila melanogaster
Rescue flies = test: Short-term memory (60 mins) with mated female targets, Rescue flies; details: for short-term memory, mated female target: 86 μM MPEP, 400 nM LY341495, 573 μM MPPG, 348 μM MTPG; for memory at 60 minutes post training, mated female target: 5 day old, 8.6 mM MPEP, 400 nM LY341495
Protocol: Effects of drug treatment on short-term memory (60 mins) in flies lacking dfmr1 activity with mated female targets. Short-term (60 min.) memory was measured in Rescue and FS flies that were either fed control food or underwent various drug treatments as described below. Short-term memory was measured by placing a trained male in a holding chamber for 60 minutes (after being trained for one hour with a previously mated female), then subsequently placing him in a testing chamber with a mated female target for a ten-minute courtship interval (C.I.). This C.I. was compared to the C.I. obtained for naïve courtship of a previously mated female, i.e., C.I. during the first 10 minutes of the training session with a previously mated female. Additionally, for reference the C.I. during the last 10 minutes of the training period was also determined. Numbers of flies are indicated above each bar for all groups. The levels of significance are indicated as follows; *=p<0.05; **=p<0.005; ***=p<0.0001.
Restoration of short-term memory with mGluR antagonists. To establish that the failure to observe memory was not due to a problem with recognizing or processing the appropriate cues from the virgin female target, we used a modified version of the conditioned courtship paradigm where the male is paired with a mated female target subsequent to training (Kane et al., 1997; Joiner and Griffith, 1997; Joiner and Griffith, 1999; Kamashev et al., 1999). Again, with pharmacologic treatment it is necessary to utilize more then one compound to confirm the specificity of the target, so in this case we used four mGluR antagonists. […] It is also important to note that the robust deficit in synaptic plasticity in FS flies, with regard to memory, is a critical extension of the previous models of Fragile X syndrome in model organisms, since this is one of the most prominent aspects of the human disorder. Furthermore, we have shown that antagonism of the mGluRs can restore synaptic plasticity in the Drosophila model of Fragile X syndrome.

[1] = tested on: FS (dFMR1-3+frame shifted rescue fragment) flies; test: Naive courtship behavior (courtship index toward virgin female), FS flies; details: for naive courtship: MPEP 20 μg/ml, LY341495 400 nM in food
From the text: (§1) Learning and memory (cognitive abilities) can be examined in Drosophila by utilizing several available learning and memory paradigms. The most popular is a classical conditioning paradigm in which the flies learn to associate electric shocks with olfactory cues (Dudia et al, 1976; Davis, 1993; Tully, 1994). An alternative paradigm to study learning and memory in Drosophila is called conditioned courtship, wherein a male fly learns to modify his courtship behavior after experience with an unreceptive female; it is a multi-sensory paradigm involving associations from more then one sensory input (Siegel and Hall, 1979; for review see Hall, 1994). It is a more complex associative learning paradigm and was utilized to assay learning and memory in this article to elucidate the role of dFMR1 in learning and memory (Tompkins et al, 1980; Tompkins et al, 1982; Tompkins et al, 1983; Tompkins et al, 1984; Ackerman and Siegel, 1986). Courting male flies perform a characteristic sequence of behaviors: orienting toward and following the female, tapping her with his forelegs, vibrating one or both wings, licking her genitalia, and attempting copulation (Sturtevant, 1915; Bastock and Manning, 1955; Bastock, 1956). These behaviors are repeated with some variation until successful copulation occurs. Virgin females will generally respond by mating; however, recently mated females will be unreceptive and will not allow copulation to occur (Spieth, 1974), they display different behaviors (Bastock and Manning, 1955; Connolly and Cook, 1973) and have an altered, although somewhat overlapping, pheromonal profile (Cobb and Ferveur, 1996). The naive male will find a previously mated female to have a pheromonal repertoire that is less provocative then that of a virgin female target. A naive male paired with a mated female will initially court her, but his courtship activity soon decreases; after 1 hour of experience with the mated female, his courtship when subsequently paired with a virgin female remains depressed for 2-3 hours (Siegel and Hall, 1979). This effect is not a general suppression of all courtship activity since a male's tendency to court an immature male is not suppressed (Gailey et al, 1984). […] These behaviors are quantified as a courtship index (CI) which is defined as the percentage of time a male fly spends performing any of the six courtship steps toward a target female in a ten minute test period. A decrease in CI after training with a previously mated female is indicative of behavioral plasticity in the form of learning or memory.
Since we use female targets that are not etherized (therefore they are freely moving), and the w118 and dfmr1-3 flies may have slightly impaired visual acuity due to lack of eye pigmentation, and since visual inputs affect courtship behavior, all subsequent experiments were done utilizing only the genotypes Rescue: dfmr1-3+wild type rescue fragment, and FS: dfmr1-3+frame shifted rescue fragment. Both of these genotypes have more pigmentation and similar levels of eye pigmentation to each other. For FIGS. 4 and 5, a high concentration of MPEP (1,000 μg/ml) was used. For the remainder of the experiments the food was either control (CT) or exactly the same control food containing the appropriate concentration of MPEP (M). The position of the CT and the M are indicative of the point at which the group was on the particular food. The first letter indicates the food type that the larvae grew up on, and the second letter denotes the food type that the adult flies were placed on within four hours of eclosion, […] fresh food.
Naive males were placed in the training chamber for one hour with no female, and then placed with a virgin target female for a ten-minute interval. The naive courtship behavior was reduced by high MPEP concentration in Rescue (p<0.0001) and FS (p<0.0005) lines, and it was depressed to similar levels by high MPEP treatment in the Rescue and FS groups (FIG. 2A). […]

[2] = tested on: Rescue (dFMR1-3+wild type rescue fragment) flies; test: Naive courtship behavior (courtship index toward virgin female), Rescue flies; details: for naive courtship: MPEP 20 μg/ml, LY341495 400 nM in food
From the text: as §1
Since we use female targets that are not etherized (therefore they are freely moving), and the w118 and dfmr1-3 flies may have slightly impaired visual acuity due to lack of eye pigmentation, and since visual inputs affect courtship behavior, all subsequent experiments were done utilizing only the genotypes Rescue: dfmr1-3+wild type rescue fragment, and FS: dfmr1-3+frame shifted rescue fragment. Both of these genotypes have more pigmentation and similar levels of eye pigmentation to each other. For FIGS. 4 and 5, a high concentration of MPEP (1,000 μg/ml) was used. For the remainder of the experiments the food was either control (CT) or exactly the same control food containing the appropriate concentration of MPEP (M). The position of the CT and the M are indicative of the point at which the group was on the particular food. The first letter indicates the food type that the larvae grew up on, and the second letter denotes the food type that the adult flies were placed on within four hours of eclosion, and for the four following days, until the day before testing when they were placed on fresh food.
In order to determine if MPEP can get into the Drosophila central nervous system (CNS) through feeding behavior, we mixed MPEP into the food at a concentration of 1,000 μg/ml ([…]). Males were raised on CT food and then placed on either CT or M food. […]

[3] = 5 day old, MPEP 200 μg/ml (86.6 μM) in development, with or without adulthood (M-M, M-CT)
[4] = 5 day old, MPEP 1,000 μg/ml (433.0 μM) in food in adulthood (CT-M)

Row | Structure (SMILES) | short-term memory, mated female target (Rescue flies) | memory at 60 minutes post training, mated female target (Rescue flies) | naive courtship ([1]; 5 day old) | naive courtship ([2]; 5 day old) | naive courtship activity ([1]; 5 day old adults, 573 mM MPPG (p<0.0001) or 348 μM MTPG (p<0.005)) | naive courtship activity ([2]; 5 day old adults, 573 mM MPPG or 348 μM MTPG, p<0.0001 for both) | naive courtship activity ([1]; 20-day-old, MPEP (86.6 μM) in adulthood only (CT-M)) | naive courtship activity ([1]; 20-day-old, MPEP (86.6 μM) in development and adulthood (M-M)) | naive courtship activity ([1]; 20-day-old, MPEP (86.6 μM) in development only (M-CT)) | naive courtship activity [1, 3] | naive courtship activity ([1]; 5 day old, MPEP 200 μg/ml (86.6 μM) in food in adulthood only (CT-M), p<0.005) | naive courtship behavior [1, 4] | naive courtship activity ([2]; 5 day old, MPEP 200 μg/ml (86.6 μM) in adulthood only (CT-M), p<0.0001) | naive courtship activity [2, 3] | naive courtship behavior [2, 4]
1 | N[C@](CC1c2ccccc2Oc2ccccc21)(C(=O)O)[C@H]1C[C@@H]1C(=O)O [LY341495, (2S)-2-amino-2-[(1S,2S)-2-carboxycycloprop-1-yl]-3-(xanth-9-yl) propionic acid] | demonstrated intact short-term memory | demonstrate memory at 60 minutes post training | significantly increased naive courtship | suppressed naive courtship | – | – | – | – | – | – | – | – | – | – | –
2 | CC(N)(C(=O)O)c1ccc(-c2nnn[nH]2)cc1 (racemic) [MTPG, (RS)-α-methyl-4-tetrazolylphenylglycine] | demonstrated intact short-term memory | demonstrate memory at 60 minutes post training | – | – | significant increase in courtship activity | significant decrease in courtship activity | – | – | – | – | – | – | – | – | –
3 | Cc1cccc(C#Cc2ccccc2)n1 [MPEP, 2-methyl-6-(phenylethynyl)pyridine] | demonstrated intact short-term memory | demonstrate memory at 60 minutes post training | significantly increased naive courtship | suppressed naive courtship | – | – | significant increase in courtship activity | significant increase in courtship activity | did not demonstrate an increase in naive courtship activity | courtship levels similar to CT-CT Rescue flies | significant increase in courtship activity | reduced | depressed relative to CT-CT Rescue flies | courted as vigorously as CT-CT Rescues flies | reduced
